Reference: paper PMC10481938, “Discovery of new Schistosoma mansoni aspartyl protease inhibitors by structure-based virtual screening” (Memórias do Instituto Oswaldo Cruz, 2023)

What was measured:
[1] = biological target: recombinant Schistosoma mansoni cathepsin D-like aspartyl protease 1 (SmCD1) (Schistosoma mansoni, UniProt P91802); test: SmCD1 enzymatic assay (FRET substrate Abz-AIAF/FSRQ-EDDnp); assay type: biochemical; conditions: for inhibition at 10 µM: read-out: Enzymatic activity inhibition (%) SmCD1; for IC50: recombinant SmCD1, pH 3.5, 95% confidence interval in parentheses; for Binding efficiency index (BEI): BEI = pIC50/MW(kDa), from SmCD1 IC50
Protocol: SmCD1 cloning, expression and purification - Expression of the recombinant enzyme was previously performed by our group[14] by transfection of the vector with recombinant proSmCD1 gene (proSmCD1r) into culture bottles containing human embryonic kidney (HEK293) cells. After an incubation period of three to five days, the culture medium of the HEK293 cells was collected, filtered, and used for the purification of the recombinant protein. A HisTrap FF column in-tandem with a HiLoad 16/60 Superdex column, connected to an Äkta Xpress system were used for the purification of the protein.
(§1) SmCD1 enzymatic assay - Initially, 2.5 μg of SmCD1 was added to a reaction medium containing 50 mM sodium acetate buffer with 50 mM NaCl at pH 3.5. […] After incubation, to start the reaction, 10 μM of the substrate octapeptide fluorescent (FRET) Abz-AIAF/FSRQ-EDDnp (102023-1, GenOne) was added to the medium. The substrate hydrolysis reaction product was continuously detected (λex = 310 nm and λem = 420 nm), using a Flex Station III microplate reader (Molecular Devices), during the initial 10 min of the reaction.
(§2) All enzymatic assays in this work were performed as described above, and repeated at least three times, each condition in triplicate. In tests involving screening of compounds, the percentage of inhibition of enzymatic activity was calculated considering the mean of the negative control as 100% activity.
(§3) Determination of IC 50 values - For IC50 (inhibitor concentration in which the enzymatic activity is reduced by 50%) determination assays, serial dilutions of the inhibitors were performed, ranging from 1 µM to 500 µM. The IC50 values were determined by fitting SmCD1 activity data into the 4-parameter logistic equation.

[2] = test system: adult worm aqueous extract (AWAE) aspartic protease activity; test: AWAE aspartic protease activity assay; assay type: biochemical, Schistosoma mansoni; conditions: for Enzymatic activity inhibition (%) AWAE: 10 μM of compound, average of triplicate of single experiment, CV% in parentheses; for IC50: aspartic protease activity of adult worm aqueous extract, with 5 µM E-64, 95% confidence interval in parentheses
Protocol: Preparation of adult worm aqueous extract (AWAE) - The extract was prepared from the homogenisation of 1 mL of worms, containing both male and female, in 5 mL of phosphate buffered saline (PBS) + 1% CHAPS, at pH 7.4, using a Turrax disperser. This volume of parasites is roughly equivalent to 20 adult parasites. The homogenate was centrifuged at 20,000 g for 1 hour at 4 °C, and the supernatant stored at -80 °C. An aliquot was used for the protein dosing by the Lowry method (DC^TM protein assay - BIO-RAD).
[…] In tests involving screening of compounds, the percentage of inhibition of enzymatic activity was calculated considering the mean of the negative control as 100% activity.
(§4) AWAE aspartic protease activity assay - For assaying the aspartyl protease activity present in the AWAE, the same protocol described above for SmCD1 was followed, except for 20 µg of total proteins present in AWAE were added instead of the recombinant SmCD1 enzyme. Additionally, 5 µM of E-64, an inhibitor of cysteinyl proteases, was added to prevent enzymes of this class present in the AWAE[15] to also contribute to substrate hydrolysis on the acidic pH of the assay.
as §3

porcine pepsin = biological target: T1, porcine pepsin (Sus scrofa, UniProt P00791); test: Specificity assay toward porcine pepsin; assay type: biochemical; conditions: for inhibition at 10 µM: 10 μM of compound, average of triplicate of single experiment, CV% in parentheses, read-out: Enzymatic activity inhibition (%) Pepsin; for IC50: porcine pepsin, 95% confidence interval in parentheses
T1 construct: purchased Difco 0151-17 / 215110
Protocol: as §1
(§5) Specificity assays toward mammalian proteases - For recombinant BtCD and porcine pepsin, the same protocol described above for SmCD1 was followed, except for 10 μg of BtCD or 5 μg of pepsin were added.
The IC50 values were determined by fitting SmCD1 activity data into the 4-parameter logistic equation.

[3] = test system: aspartic protease activity (porcine pepsin, SmCD1, AWAE); test: Aspartic protease inhibition screening of 50 putative hits (hit criterion); assay type: biochemical; conditions: 10 µM, SmCD1 or AWAE
Protocol: as §1, §2, §4, §5
The AWAE assay captures the combined activities of all SmAPs present in schistosome adult worms, while excluding the concurrent cysteinyl protease activity, due the addition of the broad-spectrum E-64 inhibitor.

[4] = biological target: T2, bovine cathepsin D (BtCD) (Bos taurus, UniProt P80209); test: Specificity assay toward bovine cathepsin D (BtCD); assay type: biochemical
T2 construct: purchased Sigma-Aldrich C3138
Protocol: as §1, §5

WSS-1 cells = test: Cytotoxicity assay on human WSS-1 cells (resazurin); assay type: cell-based; conditions: 48 h
Protocol: Cytotoxicity assays on human WSS-1 cells - The cytotoxicity of compounds 5, 19 and 50 was evaluated against normal epithelial cells derived from human kidney (WSS-1, ATCC™ CRL-2029). Cells were seeded in 96-well plates, at 5x10^4 cells/mL, in DMEM high glucose medium supplemented with 10% foetal bovine serum (FBS). After adherence period of 24 h, at 37 °C and 5% CO2, the cells were treated with compounds at 10 µM or 100 μM concentrations and incubated for 44 h. After this time, resazurin solution was added to cells culture, at a final concentration of 0.01 mg/mL. The cells returned to the incubator for another 4 h to complete 48 h total incubation time.[50]
Fluorescence readings of resorufin (λex = 560 nm, λem = 590 nm) were taken immediately (F0) and 4 hours (F4) after resazurin addition, using Flex Station III. The percentage of viable cells at the end of the experiment, that is, after compounds exposure for 48h, was calculated as follows: […]
<mml:math><mml:mi>V</mml:mi><mml:mi>i</mml:mi><mml:mi>a</mml:mi><mml:mi>b</mml:mi><mml:mi>l</mml:mi><mml:mi>e</mml:mi><mml:mi> </mml:mi><mml:mi>c</mml:mi><mml:mi>e</mml:mi><mml:mi>l</mml:mi><mml:mi>l</mml:mi><mml:mi>s</mml:mi><mml:mo>=</mml:mo><mml:mfrac><mml:mrow><mml:mi>F</mml:mi><mml:mn>4</mml:mn><mml:mo>-</mml:mo><mml:mi>F</mml:mi><mml:mn>0</mml:mn><mml:mi mathvariant="normal"> </mml:mi><mml:mi mathvariant="normal">t</mml:mi><mml:mi mathvariant="normal">r</mml:mi><mml:mi mathvariant="normal">e</mml:mi><mml:mi mathvariant="normal">a</mml:mi><mml:mi mathvariant="normal">t</mml:mi><mml:mi mathvariant="normal">e</mml:mi><mml:mi mathvariant="normal">d</mml:mi></mml:mrow><mml:mrow><mml:mi>F</mml:mi><mml:mn>4</mml:mn><mml:mo>-</mml:mo><mml:mi>F</mml:mi><mml:mn>0</mml:mn><mml:mi mathvariant="normal"> </mml:mi><mml:mi mathvariant="normal">c</mml:mi><mml:mi mathvariant="normal">o</mml:mi><mml:mi mathvariant="normal">n</mml:mi><mml:mi mathvariant="normal">t</mml:mi><mml:mi mathvariant="normal">r</mml:mi><mml:mi mathvariant="normal">o</mml:mi><mml:mi mathvariant="normal">l</mml:mi></mml:mrow></mml:mfrac><mml:mi mathvariant="normal"> </mml:mi><mml:mi mathvariant="normal">x</mml:mi><mml:mi mathvariant="normal"> </mml:mi><mml:mn>100</mml:mn><mml:mi mathvariant="normal"> </mml:mi></mml:math>

adult S. mansoni worms = test: Schistosoma mansoni adult worms ex vivo motility assay; assay type: cell-based; conditions: 10 µM; for effect on female worms motility: late incubation times (48 or 72 h), female adult worms; for killing of adult worms ex vivo (judged by worm motility): up to 72 h, male and female adult worms
Protocol: Schistosoma mansoni adult worms ex vivo assay - The effect of 10 µM of the test compounds or PZQ (positive control) on adult S. mansoni worms motility for up to 72 h of incubation at 37 °C and 5% CO2 was evaluated by a high content assay previously developed by our group.[50] Image analysis was carried out in a customised pipeline of the open-source Cellprofiler software v. 4.2.1[51] and consisted of quantifying parasites area (Area measurement of MeasureObjectSizeShape module) and its displacement over pairs of consecutive images (false negative rate measurement of MeasureObjectOverlap module). […] The effects of the experimental treatments on parasites motility were estimated from this model by the integrated nested laplace approximation (INLA) method available in INLA package of R (https://www.r-inla.org). The results were expressed as percentual relative motility considering the estimated effect of the negative control group (0.2% DMSO) for each incubation time as 100%.

[5] = up to tested concentration 500 μM

recombinant Schistosoma mansoni cathepsin D-like aspartyl protease 1 (SmCD1), sequence (P91802 entry or part of it): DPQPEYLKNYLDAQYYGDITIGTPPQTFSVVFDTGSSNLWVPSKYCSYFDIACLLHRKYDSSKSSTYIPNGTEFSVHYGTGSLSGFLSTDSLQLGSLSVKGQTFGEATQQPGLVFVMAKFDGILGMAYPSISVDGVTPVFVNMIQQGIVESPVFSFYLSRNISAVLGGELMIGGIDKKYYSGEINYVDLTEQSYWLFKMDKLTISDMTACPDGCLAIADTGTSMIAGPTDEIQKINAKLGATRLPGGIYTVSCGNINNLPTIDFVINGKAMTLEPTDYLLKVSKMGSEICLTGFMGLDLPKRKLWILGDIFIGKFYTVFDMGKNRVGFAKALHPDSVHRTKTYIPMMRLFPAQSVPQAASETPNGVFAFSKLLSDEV
T1 sequence (P00791 60-385): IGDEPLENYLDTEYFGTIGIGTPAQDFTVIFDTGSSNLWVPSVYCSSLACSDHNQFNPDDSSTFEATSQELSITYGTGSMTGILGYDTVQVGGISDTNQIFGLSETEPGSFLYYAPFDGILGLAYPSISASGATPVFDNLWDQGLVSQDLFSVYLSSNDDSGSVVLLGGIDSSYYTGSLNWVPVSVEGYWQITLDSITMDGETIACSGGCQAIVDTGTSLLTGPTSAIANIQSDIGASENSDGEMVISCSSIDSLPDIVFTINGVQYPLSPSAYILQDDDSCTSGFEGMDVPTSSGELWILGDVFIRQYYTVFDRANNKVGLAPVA
T2 sequence (P80209 45-390): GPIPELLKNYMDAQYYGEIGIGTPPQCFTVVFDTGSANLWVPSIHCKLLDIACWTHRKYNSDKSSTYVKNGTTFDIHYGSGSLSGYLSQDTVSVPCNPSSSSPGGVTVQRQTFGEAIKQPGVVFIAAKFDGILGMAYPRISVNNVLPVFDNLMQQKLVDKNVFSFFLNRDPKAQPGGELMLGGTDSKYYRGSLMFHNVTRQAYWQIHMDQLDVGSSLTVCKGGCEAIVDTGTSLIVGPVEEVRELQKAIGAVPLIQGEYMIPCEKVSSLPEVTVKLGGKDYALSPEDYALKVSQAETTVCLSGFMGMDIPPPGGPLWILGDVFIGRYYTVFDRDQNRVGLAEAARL

Row | Molecule | inhibition at 10 µM [1] [%] | IC50 [1] [µM] | Enzymatic activity inhibition (%) AWAE [2] | IC50 [2] [µM] | inhibition at 10 µM (porcine pepsin) [%] | IC50 (porcine pepsin) [µM] | inhibition of any of the aspartic protease activity (considered active) [3] [%] | Binding efficiency index (BEI) [1] | inhibition at 500 µM ([4]; highest concentration evaluated, 500 μM (solubility limitation)) [%] | IC50 ([4]; inferred from less than 50% inhibition at 500 μM) [µM] | cytotoxicity against WSS-1 cells (WSS-1 cells; 10 µM) | cytotoxicity against WSS-1 cells (WSS-1 cells; up to 100 µM) | effect on female worms motility (adult S. mansoni worms) | killing of adult worms ex vivo (judged by worm motility) (adult S. mansoni worms) | inhibition against SmCD1 [1, 5] | inhibition against pepsin (porcine pepsin; [5]) | decrease of WSS-1 cell viability (WSS-1 cells; 100 µM)
1 | Cc1ccc(C(C)(C)C)c(OCCCNCCN)c1 [Compound 12] | -10.5 | > 500 | 32.0 (11) % | 315 | -3.5 | 231 | ≥ 25 |  |  |  |  |  |  |  |  |  | 
2 | CCn1c2ccccc2c2cc(NC(=O)CSC3=C(C#N)C(c4ccccc4F)CC(=O)N3)ccc21 (centres unmarked) [Compound 22] | 1.8 | > 500 | 16.0 (15) % | > 500 | 25.4 | 38 | ≥ 25 |  |  |  |  |  |  |  |  |  | 
3 | Cc1cccc(NS(=O)(=O)c2ccc3[nH]c(=O)c(=O)[nH]c3c2)c1 [Compound 5, 2,3-dioxo-N-(m-tolyl)-1,2,3,4-tetrahydroquinoxaline-6-sulfonamide] | 24.3 | 83.6 | 23.0 (14) % | 135 | 44.2 | 92.6 | ≥ 25 | 12.3 | ≤ 45 | > 500 | neither cytotoxic | non-toxic | slight decrease | nor could kill adult worms |  |  | 
4 | Fc1ccc(-c2ccc(CNCCOc3ccccn3)o2)cc1Cl [Compound 50] | 3.4 | > 500 | 34.5 (8) % | 77.7 | 10.5 | > 500 | ≥ 25 |  |  |  | neither cytotoxic and safe |  | slight decrease | nor could kill adult worms | not showing significant inhibition | not showing significant inhibition | more than 90%
5 | pepstatin A [reference compound] |  |  | 98.7 (7) % |  |  |  |  |  |  |  |  |  |  |  |  |  | 
6 | O=C(CSc1nc2cc([N+](=O)[O-])ccc2[nH]1)Nc1ccc(F)c(F)c1 [Compound 1] | 0.4 | > 500 |  | > 500 | 5.6 | > 500 | ≥ 25 |  |  |  |  |  |  |  |  |  | 
7 | N=C(Nc1ccccc1)Nc1nc(=O)cc(CSc2nc3ccccc3s2)[nH]1 [Compound 32] | 12.2 | > 500 |  | > 500 | 34.7 | 72.5 | ≥ 25 |  |  |  |  |  |  |  |  |  | 
8 | Cc1cccc(NC(=O)CSc2ncnc3sc4c(c23)CCC(C)C4)c1 (centres unmarked) [Compound 19, 2-((7-methyl-5,6,7,8-tetrahydrobenzo[4,5]thieno[2,3-d]pyrimidin-4-yl)thio)-N-(m-tolyl)acetamide] | -15.3 | 102 | 9.20 (12) % | > 500 | 42.4 | 23.1 | ≥ 25 | 10.4 |  |  | neither cytotoxic | non-toxic |  | nor could kill adult worms |  |  | 
